Several values for one entry are separate records, joined by “and”; a condition that tells them apart may be missing. Equal entries are not always repeated. Where two headings read alike, the source gives them in different places.
Key:
[1] = test system: P. falciparum; assay: Study 2: phase 2 randomized controlled trial, efficacy in teenagers with uncomplicated falciparum malaria; assay type: in vivo, Plasmodium falciparum; settings: for Median PRR (parasite reduction ratio: parasitemia at baseline/parasitemia at 72 h): N=8, at 72 h
Excerpt: The study was designed to enroll up to 180 participants. A randomized, controlled, age de-escalating trial design was applied in Study 2 to assess SAR97276A as a 3-day regimen administered IM to underage malaria patients. […] The study was planned to be conducted first in teenagers (age 12–17 years) and then in children (age 2–11 years).
Study 2 only enrolled uncomplicated malaria patients with P. falciparum ≥2000 parasites/µL. Two age groups were planned: Teenager aged 12–17 years and children aged 2–11 years. SAR97276A was planned to be administered only by IM injection.
Study duration and follow-up In both studies, study duration was 28 days for each patient including a screening period of up to 12 h before inclusion into the study. Participants were hospitalized for at least 3 days (72 h) after the start of treatment. Follow-up visits were done on day 6, 8, 14 ± 2, 21 ± 2, 28 ± 2 (Study 1); and day 7, 14 ± 2, 21 ± 2, 28 ± 2 (Study 2). Patient examination Fever measurements and thick blood smears were done every 6 h until 72 h and at each follow-up visit. Parasitemia was determined microscopically by Giemsa stained thick blood smear by two trained microscopists blinded to each other. […] Laboratory tests including hematology, biochemistry and urine analysis were done at baseline, day 2, 4, 28 (Study 1), or baseline, day 2, 4, 14, 28 (Study 2); vital signs were recorded at baseline, every 6 h until 72 h and on each follow up visit. An electrocardiogram (ECG) was done at baseline, day 4, 28 (Study 1), or baseline, 48 h, 72 h, day 28 (Study 2). For Study 2 respiratory parameters (respiratory rate, peak flow, efficiency of cough) were also checked at baseline and 30 min after first dose on day 1, 2 and 3.
Primary endpoint consisted of two criteria: (1) parasite clearance at 72 h analyzed by thick blood smear and (2) measurement of parasite reduction ratio (PRR: parasitemia at baseline/parasitemia at 72 h).
Sample size was calculated based on the parasite reduction ratio (PRR). Details are described in the supplementary information (see Additional file 4). PRR was calculated by: parasitemia at baseline/parasitemia at 72 h. For patients who prematurely discontinued study treatment the parasitemia at 72 h was replaced by last measurement of parasitemia or last measurement before rescue therapy for calculation of PRR at 72 h.
Parasite clearance time (PCT), PC50 and PC90 were calculated by Kaplan–Meier method. Interim analysis was to be performed following completion of each cohort.
Study 2: The patients were monitored up to day 28. […] The current available recommended rescue therapy as recommended by local guidelines was given. Treatment failures were described as early and late treatment failures.
Late treatment failure was defined as development of severe malaria after day 3 after first study drug administration in presence of parasitemia, and /or parasitemia on day 4 - 14 with axillary temperature ≥ 37.5°C, and /or any additional antimalarial therapy not specified in the study protocol.

[2] = Population pharmacokinetics in plasma, Study 1 and Study 2; assay type: in vivo, human; settings: for AUC(0-t) / Cmax / Vd / clearance: human, plasma; for AUC(0-t) / Cmax: mean and SD; for AUC(0-t): read-out: AUC or AUC0-24,ss; for Cmax: read-out: Cmax or Cmax,ss; for Vd: read-out: Median central volume of distribution V2; for clearance: read-out: Median clearance (converted)
Procedure: Rescue therapy was initiated in case of clinical aggravation of recrudescent parasites in both studies, the exact description for each study can be seen in the supplement (Additional file 3). Pharmacokinetic analysis: Plasma samples were assayed using a validated liquid chromatography-mass spectrometry method with a limit of quantification of 1 ng/ml for SAR97276. The pharmacokinetic analysis was performed using a population pharmacokinetic modeling approach.
The pharmacokinetics of SAR97276 were best described by a three-compartment model, with a first order absorption (ka), with interindividual variability on clearances and central volume of distribution.

[3] = test system: malaria mouse model; parameters: method as in PMID 11847346, PMID 15492221, PMID 12878525; settings: cited from earlier work; for Curative 4-day dose: mouse model
[4] = ref unpublished data owned by Sanofi, cited from earlier work
[5] = Group 2A: 3 days IM once daily 0.5 mg/kg, N=8
[6] = Group 2B: 3 days IM twice daily 0.25 mg/kg, N=8
[7] = im, 0.18 mg/kg, Group 1D: 3 days IM 0.18 mg/kg, children, n=14
[8] = im, 0.18 mg/kg, Study 1 Adults IM (1A + 1B) 0.18 mg/kg, n=64
[9] = im, 0.5 mg/kg, Group 2A: 3 days IM once daily 0.5 mg/kg, teenagers, n=8
[10] = intramuscular, 0.18 mg/kg, children
[11] = iv, 0.14 mg/kg, Group 1C: 1 day IV 0.14 mg/kg, adults, n=30
[12] = after single IM administration of 36 mg, phase 1

Cc1c(CCO)sc[n+]1CCCCCCCCCCCC[n+]1csc(CCO)c1C [SAR97276A]
Early treatment failures [1, 5]: 4 | Late treatment failures [1, 5]: 3 | Patients classified as treatment failures [1, 5]: 7/8 | Patients who received rescue treatment during the trial [1, 5]: 8/8 | Median PRR (parasite reduction ratio: parasitemia at baseline/parasitemia at 72 h) ([1]; Group 2A: 3 days IM once daily 0.5 mg/kg): 22.5 (0.4–6280.0) | Parasitemia between 6 and 12 h after the start of treatment ([1]; Group 2A: 3 days IM once daily 0.5 mg/kg, not seen in the other groups): Increase of parasitemia | Early treatment failures [1, 6]: 4 | Late treatment failures [1, 6]: 1 | Patients classified as treatment failures [1, 6]: 5/8 | Patients who received rescue treatment during the trial ([1]; Group 2B: 3 days IM twice daily 0.25 mg/kg, N=8, 0.25 mg/kg): 5 out of 8 and 5/8 | Median PRR (parasite reduction ratio: parasitemia at baseline/parasitemia at 72 h) ([1]; Group 2B: 3 days IM twice daily 0.25 mg/kg): 12.0 (0.3–83.1) | AUC(0-t) [2, 7]: 479 ± 111 ng·h/mL | Cmax [2, 7]: 332 ± 91 ng/mL | AUC(0-t) [2, 8]: 674 ± 109 ng·h/mL | Cmax [2, 8]: 355 ± 51 ng/mL | AUC(0-t) ([2]; im, 0.25 mg/kg, Group 2B: 3 days IM twice daily 0.25 mg/kg, teenagers, n=8, AUC0-12 at steady state multiplied by 2): 1400 ± 270 ng·h/mL | Cmax ([2]; im, 0.25 mg/kg, Group 2B: 3 days IM twice daily 0.25 mg/kg, teenagers, n=8): 477 ± 91 ng/mL | AUC(0-t) [2, 9]: 1470 ± 375 ng·h/mL | Cmax [2, 9]: 862 ± 45 ng/mL | Vd [2, 10]: 0.217 L/kg | clearance [2, 10]: 6.55 mL/min/kg | AUC(0-t) [2, 11]: 480 ± 92 ng·h/mL | Cmax [2, 11]: 390 ± 55 ng/mL | Vd ([2]; adults): 0.27 L/kg | clearance ([2]; adults): 4.58 mL/min/kg | Inter-individual variability based on Cmax and AUC ([2]; whatever the populations or the route of administration): < 25% | Efficacy in malaria mouse model [3]: highly efficacious | Curative 4-day dose ([3]; orally): 20 to 45 mg/kg/day | Curative 4-day dose ([3]; parenterally): 1 mg/kg/day | Terminal half-life in plasma [4, 12]: 5.5 h | Terminal half-life in whole blood [4, 12]: 73 h | Participants with an AE of severe intensity (ophthalmologic problems, temporary decrease in visual acuity), considered drug related ([4]; multiple administrations of 18 mg twice daily IM, phase 1): one | Participants with AEs of severe intensity (severe abdominal spasm) ([4]; multiple doses of 12.8 mg IV, phase 1): two | Highest tolerated dose for twice daily IM administration for 3 days ([4]; phase 1): 18 mg | Tolerability in three phase 1 clinical trials ([4]; single doses 0.2–12.8 mg IV, 3.2–36 mg IM): well tolerated
